Test results reported in patent publication US6914045B2, “Glycopeptide antibiotics” (Wyeth Holdings Corporation, priority 2001, dated 2005).
In brackets after ≈: the same amount, converted by molar mass.

Legend:
Assay in all cases: in vitro antibacterial evaluation, MIC by broth dilution
Assay type in all cases: cell-based
Enterococcus sp. = settings: broth dilution, 18 hours at 35° C.
Procedure: (§1) Methods for in vitro Antibacterial Evaluation (Table 1)
(§2) The minimum inhibitory concentration (MIC), the lowest concentration of the antibiotic which inhibits growth of the test organism, is determined by the broth dilution method using Muller-Hinton II […] (Baltimore Biological Laboratories) following the recommendations of the National Committee for Clinical Laboratory Standards [Methods for dilution antimicrobial susceptibility tests for bacteria that grow aerobically, approved standard M7-A2, National Committee for Clinical Laboratory Standards, Villanova, Pa.].
(§3) An inoculum level of 5×10^5 CFU/mL, and a range of antibiotic concentrations (64-0.06 μg/mL) is used. […] The test organisms include a spectrum of Gram-positive bacteria comprised of Staphylococcus sp., Streptococcus sp. and Enterococcus sp. These organisms include recent clinical isolates that are resistant to methicillin, penicillin and/or vancomycin.

Staphylococcus sp. = settings: broth dilution, 18 hours at 35° C.
Procedure: as §1, §2, §3

Streptococcus sp. = settings: broth dilution, 18 hours at 35° C.
Procedure: as §1, §2, §3

Escherichia coli = settings: 18 hours at 35° C.

- MIC Enterococcus avium (GC 4558) (Enterococcus sp.): 8 µg/mL (≈ 5.05 µM)
- MIC Enterococcus faecalis (ATCC 29212) (Enterococcus sp.): 32 µg/mL (≈ 20.2 µM)
- MIC Enterococcus faecalis (GC 2242) (Enterococcus sp.): 32 µg/mL (≈ 20.2 µM)
- MIC Enterococcus faecalis (GC 2691) (Enterococcus sp.): 32 µg/mL (≈ 20.2 µM)
- MIC Enterococcus faecalis (GC 3059) (Enterococcus sp.): 32 µg/mL (≈ 20.2 µM)
- MIC Enterococcus faecalis (GC 4552) (Enterococcus sp.): 32 µg/mL (≈ 20.2 µM)
- MIC Enterococcus faecalis (GC 4553) (Enterococcus sp.): 16 µg/mL (≈ 10.1 µM)
- MIC Enterococcus faecalis (GC 4554) (Enterococcus sp.): 32 µg/mL (≈ 20.2 µM)
- MIC Enterococcus faecalis (GC 6189) (Enterococcus sp.): 32 µg/mL (≈ 20.2 µM)
- MIC Enterococcus faecium (GC 2243) (Enterococcus sp.): 16 µg/mL (≈ 10.1 µM)
- MIC Enterococcus faecium (GC 4556) (Enterococcus sp.): 32 µg/mL (≈ 20.2 µM)
- MIC Enterococcus faecium (GC 4557) (Enterococcus sp.): 16 µg/mL (≈ 10.1 µM)
- MIC Enterococcus faecalis (ATCC 29212) (Enterococcus sp.; inoculum 5×10^5 CFU/mL, strain ATCC 29212): 32 µg/mL (≈ 20.2 µM)
- MIC Enterococcus faecalis (GC 2242) (Enterococcus sp.; inoculum 5×10^5 CFU/mL, strain GC 2242): 32 µg/mL (≈ 20.2 µM)
- MIC Enterococcus faecium (GC 2243) (Enterococcus sp.; inoculum 5×10^5 CFU/mL, strain GC 2243): 16 µg/mL (≈ 10.1 µM)
- MIC Enterococcus faecalis (GC 2691) (Enterococcus sp.; inoculum 5×10^5 CFU/mL, strain GC 2691): 32 µg/mL (≈ 20.2 µM)
- MIC Enterococcus faecalis (GC 3059) (Enterococcus sp.; inoculum 5×10^5 CFU/mL, strain GC 3059): 32 µg/mL (≈ 20.2 µM)
- MIC Enterococcus faecalis (GC 4552) (Enterococcus sp.; inoculum 5×10^5 CFU/mL, strain GC 4552): 32 µg/mL (≈ 20.2 µM)
- MIC Enterococcus faecalis (GC 4553) (Enterococcus sp.; inoculum 5×10^5 CFU/mL, strain GC 4553): 16 µg/mL (≈ 10.1 µM)
- MIC Enterococcus faecalis (GC 4554) (Enterococcus sp.; inoculum 5×10^5 CFU/mL, strain GC 4554): 32 µg/mL (≈ 20.2 µM)
- MIC Enterococcus faecium (GC 4556) (Enterococcus sp.; inoculum 5×10^5 CFU/mL, strain GC 4556): 32 µg/mL (≈ 20.2 µM)
- MIC Enterococcus faecium (GC 4557) (Enterococcus sp.; inoculum 5×10^5 CFU/mL, strain GC 4557): 16 µg/mL (≈ 10.1 µM)
- MIC Enterococcus avium (GC 4558) (Enterococcus sp.; inoculum 5×10^5 CFU/mL, strain GC 4558): 8 µg/mL (≈ 5.05 µM)
- MIC Enterococcus faecalis (GC 6189) (Enterococcus sp.; inoculum 5×10^5 CFU/mL, strain GC 6189): 32 µg/mL (≈ 20.2 µM)
- MIC Coagulase Negative Staphylococcus (GC 4547) (Staphylococcus sp.): 16 µg/mL (≈ 10.1 µM)
- MIC Coagulase Negative Staphylococcus (GC 4548) (Staphylococcus sp.): 16 µg/mL (≈ 10.1 µM)
- MIC Coagulase Negative Staphylococcus (GC 4549) (Staphylococcus sp.): 16 µg/mL (≈ 10.1 µM)
- MIC Coagulase Negative Staphylococcus (GC 4551) (Staphylococcus sp.): 16 µg/mL (≈ 10.1 µM)
- MIC Staphylococcus aureus-SMITH (GC 4543) (Staphylococcus sp.): 32 µg/mL (≈ 20.2 µM)
- MIC Staphylococcus aureus-SMITH (GC 4543) (Staphylococcus sp.; strain GC 4543): 32 µg/mL (≈ 20.2 µM)
- MIC Coagulase Negative Staphylococcus (GC 4547) (Staphylococcus sp.; strain GC 4547): 16 µg/mL (≈ 10.1 µM)
- MIC Coagulase Negative Staphylococcus (GC 4548) (Staphylococcus sp.; strain GC 4548): 16 µg/mL (≈ 10.1 µM)
- MIC Coagulase Negative Staphylococcus (GC 4549) (Staphylococcus sp.; strain GC 4549): 16 µg/mL (≈ 10.1 µM)
- MIC Coagulase Negative Staphylococcus (GC 4551) (Staphylococcus sp.; strain GC 4551): 16 µg/mL (≈ 10.1 µM)
- MIC Staphylococcus aureus (ATCC 29213) (Staphylococcus sp.; strain ATCC 29213): 32 µg/mL (≈ 20.2 µM)
- MIC Staphylococcus aureus (GC 1131) (Staphylococcus sp.; strain GC 1131): 32 µg/mL (≈ 20.2 µM)
- MIC Staphylococcus aureus (GC 3051) (Staphylococcus sp.; strain GC 3051): 32 µg/mL (≈ 20.2 µM)
- MIC Staphylococcus aureus (GC 3053) (Staphylococcus sp.; strain GC 3053): 32 µg/mL (≈ 20.2 µM)
- MIC Staphylococcus aureus (GC 4541) (Staphylococcus sp.; strain GC 4541): 32 µg/mL (≈ 20.2 µM)
- MIC Staphylococcus aureus (GC 4542) (Staphylococcus sp.; strain GC 4542): 32 µg/mL (≈ 20.2 µM)
- MIC Staphylococcus aureus (GC 4544) (Staphylococcus sp.; strain GC 4544): 32 µg/mL (≈ 20.2 µM)
- MIC Staphylococcus aureus (GC 4545) (Staphylococcus sp.; strain GC 4545): 32 µg/mL (≈ 20.2 µM)
- MIC Streptococcus agalactiae (GC 4564) (Streptococcus sp.): 16 µg/mL (≈ 10.1 µM)
- MIC Streptococcus pneumoniae (ATCC 6301) (Streptococcus sp.): 8 µg/mL (≈ 5.05 µM)
- MIC Streptococcus pneumoniae (GC 1894) (Streptococcus sp.): 8 µg/mL (≈ 5.05 µM)
- MIC Streptococcus pneumoniae (GC 4565) (Streptococcus sp.): 8 µg/mL (≈ 5.05 µM)
- MIC Streptococcus pyogenes (GC 4563) (Streptococcus sp.): 8 µg/mL (≈ 5.05 µM)
- MIC Streptococcus pneumoniae (ATCC 6301) (Streptococcus sp.; inoculum 5×10^5 CFU/mL, strain ATCC 6301): 8 µg/mL (≈ 5.05 µM)
- MIC Streptococcus pneumoniae (GC 1894) (Streptococcus sp.; inoculum 5×10^5 CFU/mL, strain GC 1894): 8 µg/mL (≈ 5.05 µM)
- MIC Streptococcus pyogenes (GC 4563) (Streptococcus sp.; inoculum 5×10^5 CFU/mL, strain GC 4563): 8 µg/mL (≈ 5.05 µM)
- MIC Streptococcus agalactiae (GC 4564) (Streptococcus sp.; inoculum 5×10^5 CFU/mL, strain GC 4564): 16 µg/mL (≈ 10.1 µM)
- MIC Streptococcus pneumoniae (GC 4565) (Streptococcus sp.; inoculum 5×10^5 CFU/mL, strain GC 4565): 8 µg/mL (≈ 5.05 µM)
- MIC Escherichia coli (ATCC 25922) (Escherichia coli): >64 µg/mL
- MIC Escherichia coli (GC 4559) (Escherichia coli): >64 µg/mL
- MIC Escherichia coli (GC 4560) (Escherichia coli): 16 µg/mL (≈ 10.1 µM)
Structure (SMILES): CC(c1ccccc1)C1NC(=O)CNC(=O)C(CO)NC(=O)C(C(O)C2CN(c3ncccn3)C(=N)N2C2OC(CO)C(O)C(O)C2O)NC(=O)C(C(O)C2CNC(=Nc3ncccn3)N2)NC(=O)C(Cc2ccc(OC3OC(CO)C(OC4OC5COC6(OC5C(O)C4O)C4CC5CC(C4)CC6C5)C(O)C3O)cc2)NC1=O (stereo not drawn) [Example 228]
- MIC Staphylococcus haemolyticus (GC 4546) (Staphylococcus sp.): 16 µg/mL (≈ 10.1 µM)
- MIC Staphylococcus haemolyticus (GC 4546) (Staphylococcus sp.; strain GC 4546): 16 µg/mL (≈ 10.1 µM)
